# Reference: ChEMBL document CHEMBL2151013, “Diarylheptanoid sulfates and related compounds from Myrica rubra bark” (J Nat Prod, 2012)
# Experiments:
# [1] = Antioxidant activity assessed as superoxide dismutase-like activity by SOD-WST assay; format: functional
# [2] = Antioxidant activity assessed as trolox equivalent of […]-induced radical scavenging activity by ORAC fluorescence assay; format: functional
SMILES,IC50 [1],Activity [2]
C[C@@H]1O[C@@H](Oc2c(-c3cc(O)c(O)c(O)c3)oc3cc(O)cc(O)c3c2=O)[C@H](OC(=O)c2cc(O)c(O)c(O)c2)[C@H](O)[C@H]1O,38.6 µg/mL,
COc1cc2cc(c1O)-c1cc(ccc1O)CC[C@@H](OS(=O)(=O)O)CCCC2,> 1000 µg/mL,9620 µmolequiv/g
C[C@H]1O[C@@H](Oc2c(-c3cc(O)c(O)c(O)c3)oc3cc(O)cc(O)c3c2=O)[C@@H](O)[C@@H](O)[C@@H]1O [MYRICITRIN],127.5 µg/mL,13200 µmolequiv/g
COc1c2cc(c(O)c1OC)CCCC[C@@H](OS(=O)(=O)O)CCc1ccc(O)c-2c1,786.9 µg/mL,8680 µmolequiv/g
COc1c2cc(c(O)c1OC)CCCC[C@@H](O)CCc1ccc(O)c-2c1,> 100 µg/mL,
COc1c2cc(c(O[C@@H]3O[C@H](COC(=O)c4cc(O)c(O)c(O)c4)[C@@H](O)[C@H](O)[C@H]3O)c1OC)CCCC[C@H](O)CCc1ccc(O)c-2c1,139.6 µg/mL,
COC1=C(OC)C(=O)C2=C(CCCCC(O)CCc3ccc(O)c2c3)C1=O (stereo not drawn) [ACTINIDIONE],7.9 µg/mL,
O=c1c(O)c(-c2cc(O)c(O)c(O)c2)oc2cc(O)cc(O)c12 [MYRICETIN],139.6 µg/mL,16100 µmolequiv/g
COc1c2cc(c(O[C@@H]3O[C@H](COC(=O)c4cc(O)c(O)c(O)c4)[C@@H](O)[C@H](O)[C@H]3O)c1OC)CCCC[C@@H](O)CCc1ccc(O)c-2c1,90.5 µg/mL,
COc1c2cc(c(O[C@@H]3O[C@H](COC(=O)c4cc(O)c(O)c(O)c4)[C@@H](O)[C@H](O)[C@H]3O)c1OC)CCCCC(=O)CCc1ccc(O)c-2c1,106.8 µg/mL,
O=C(O)c1cc(O)c(O)c(O)c1 [GALLIC ACID],6.3 µg/mL,
O=C(O[C@@H]1[C@@H](c2c(O)cc(O)c3c2O[C@H](c2cc(O)c(O)c(O)c2)[C@H](OC(=O)c2cc(O)c(O)c(O)c2)C3)c2c(O)cc(O)cc2O[C@@H]1c1cc(O)c(O)c(O)c1)c1cc(O)c(O)c(O)c1,19.2 µg/mL,
COc1c2cc(c(O)c1OC)CCCCC(=O)CCc1ccc(O)c-2c1 [MYRICANONE],> 1000 µg/mL,
O=C(O[C@@H]1Cc2c(O)cc(O)cc2O[C@@H]1c1cc(O)c(O)c(O)c1)c1cc(O)c(O)c(O)c1 [EPIGALOCATECHIN GALLATE],26.1 µg/mL,
